Measurements reported in US12103919B2, “3-(5-oxy)-1-oxoisoindolin-2-yl)piperidine-2,6-dione derivatives and uses thereof” (NOVARTIS AG, priority 2021, dated 2024).
Where two headings read alike, the source gives them in different places.

Target: T1, WIZ (Homo sapiens, UniProt O95785+Q96SW2)
T1 construct: expressed in transfected cells
Test: Quantification of WIZ protein levels in HiBit tag fusion protein assay (293T cells)
Type: cell-based
Set-up: Dmax: dose or concentration left out as unconfirmed
Conditions: for remaining activity at 25 µM / Dmax at 25 µM / Dmax: HEK-293T; for remaining activity at 25 µM: read-out: WIZ Amax; for Dmax at 25 µM: 100 − Amax; for Dmax at 25 µM / Dmax: read-out: % degradation of WIZ (100 − Amax); for DC50: WIZ HiBit assay in 293T cells, about 18 hours, 10-point 5-fold dilution, top 25 μM, read-out: WIZ AC50
Description: The HiBit system from Promega was used to develop high-throughput and quantitative assays to measure changes in WIZ protein levels in response to compounds. The HiBit tag was derived from a split Nanoluciferase and has the following protein sequence: […] (SEQ ID NO: 1). The complementary fragment of Nanoluciferase (known as LgBit, from Promega), was added to the HiBit tag to form an active Nanoluciferase enzyme whose activity can be precisely measured. In this way, the levels of a fusion protein with the HiBit tag can be quantified in cell lysates.
Lentiviral vectors, based on the Invitrogen™ pLenti6.2/V5 DEST backbone were constructed that places the HiBit tag upstream of WIZ and expressed the fusion protein from an HSVTK promotor.
To ensure moderate and consistent expression of the HiBit-WIZ fusion protein across all cells in the population, stable cell lines were constructed from cells harboring a single copy of the construct. Lentivirus packaged with the constructs were made using the ViraPowerTMkit from Invitrogen™. 293T cells from ATCC (Catalog number: CRL-3216), were infected with the virus at low multiplicity of infection and selected by 5 μg/mL blasticidin in culture media for 2 weeks.
The levels of HiBit-WIZ tagged fusion proteins in compound-treated cell lines were measured as follows:
On day 1, cells were diluted to 1.0×10^6 cells/ml in normal growth medium. 20 μL of cell suspension were plated in each well of a solid white 384-well plate. Plates were incubated overnight in a 37° C. and 5% CO2 humidified tissue culture incubator.
On day 2, serial dilutions of compounds were made in 384-well plates. Compound plates were set up with DMSO in columns 1, 2, 23, 24, and 10-point compound dilution series in column 3-12 and column 13-22. 10 mM stock solution of compound were placed into column 3 or 13 and a 1:5 serial dilution was carried out until there was a 10-point dilution series per compound. 50 nL of diluted compounds were transferred into the plated cells by Echo® (Labcyte) acoustic transfer. The highest concentration of compound was 25 μM. Plates were incubated overnight (about 18 hours) in a 37° C. and 5% CO2 humidified tissue culture incubator.
On day 3, plates were removed from the incubator and allowed to equilibrate at room temperature for 60 minutes. HiBit substrate (Nano-Glo® HiBit Lytic Detection System, Promega Catalogue number: N3050) was added as described by the manufacturers protocols. Plates were incubated at room temperature for 30 minutes and luminescence was read using an EnVision® reader (PerkinElmer®). Data was analyzed and visualized using the Spotfire® software package.
WIZ Amax reflects the DMSO-normalized, curve-fitted percentage of WIZ-HiBit remaining at 25 uM. It was calculated by normalizing DMSO controls to 100%, parametric curve fitting of the dose response data (10-point, 5-fold), followed by calculation of response at 25 uM using the fitted equation.

[1] = DMSO-normalized, curve-fitted percentage of WIZ-HiBit remaining at 25 uM

T1 sequence (O95785 whole entry): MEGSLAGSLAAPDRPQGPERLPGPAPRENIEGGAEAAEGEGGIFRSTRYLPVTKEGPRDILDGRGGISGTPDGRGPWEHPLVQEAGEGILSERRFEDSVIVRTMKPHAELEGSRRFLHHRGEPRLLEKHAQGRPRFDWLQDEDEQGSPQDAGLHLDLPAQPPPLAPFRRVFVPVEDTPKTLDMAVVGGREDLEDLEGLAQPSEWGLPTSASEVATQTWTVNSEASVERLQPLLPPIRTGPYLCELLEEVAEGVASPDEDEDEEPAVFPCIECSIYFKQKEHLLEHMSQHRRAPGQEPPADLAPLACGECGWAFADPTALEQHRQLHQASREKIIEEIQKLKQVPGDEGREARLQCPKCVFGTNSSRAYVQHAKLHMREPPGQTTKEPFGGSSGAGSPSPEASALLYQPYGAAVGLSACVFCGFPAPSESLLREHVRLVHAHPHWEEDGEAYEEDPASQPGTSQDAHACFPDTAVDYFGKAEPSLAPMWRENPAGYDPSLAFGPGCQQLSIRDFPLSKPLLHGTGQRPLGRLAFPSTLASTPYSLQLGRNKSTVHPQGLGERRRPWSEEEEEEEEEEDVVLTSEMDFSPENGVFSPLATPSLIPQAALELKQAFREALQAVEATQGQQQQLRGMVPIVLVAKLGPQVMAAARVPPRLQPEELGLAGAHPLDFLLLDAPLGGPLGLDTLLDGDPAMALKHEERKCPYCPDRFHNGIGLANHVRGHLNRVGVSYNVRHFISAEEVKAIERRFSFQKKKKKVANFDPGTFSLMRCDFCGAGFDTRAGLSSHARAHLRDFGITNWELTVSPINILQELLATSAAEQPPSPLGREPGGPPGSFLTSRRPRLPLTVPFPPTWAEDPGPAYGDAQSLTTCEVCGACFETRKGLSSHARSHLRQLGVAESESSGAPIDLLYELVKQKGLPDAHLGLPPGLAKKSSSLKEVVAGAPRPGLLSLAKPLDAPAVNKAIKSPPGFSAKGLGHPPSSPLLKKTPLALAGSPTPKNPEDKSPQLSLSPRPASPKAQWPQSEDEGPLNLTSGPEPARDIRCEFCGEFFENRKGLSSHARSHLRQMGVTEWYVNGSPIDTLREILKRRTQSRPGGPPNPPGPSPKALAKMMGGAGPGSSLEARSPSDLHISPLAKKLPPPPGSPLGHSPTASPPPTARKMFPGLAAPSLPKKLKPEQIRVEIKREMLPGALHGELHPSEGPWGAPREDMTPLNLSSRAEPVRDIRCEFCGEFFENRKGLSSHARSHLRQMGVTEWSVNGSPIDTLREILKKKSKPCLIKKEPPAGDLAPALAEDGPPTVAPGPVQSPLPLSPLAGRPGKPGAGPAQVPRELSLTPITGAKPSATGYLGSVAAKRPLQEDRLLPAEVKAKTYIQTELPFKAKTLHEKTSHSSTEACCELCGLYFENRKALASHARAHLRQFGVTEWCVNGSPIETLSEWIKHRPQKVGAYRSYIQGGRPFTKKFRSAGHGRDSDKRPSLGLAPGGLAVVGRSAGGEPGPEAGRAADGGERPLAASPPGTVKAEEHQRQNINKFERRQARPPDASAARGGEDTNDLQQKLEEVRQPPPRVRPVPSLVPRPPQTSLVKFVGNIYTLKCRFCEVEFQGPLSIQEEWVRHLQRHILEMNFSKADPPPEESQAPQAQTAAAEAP
T1 sequence (Q96SW2 whole entry): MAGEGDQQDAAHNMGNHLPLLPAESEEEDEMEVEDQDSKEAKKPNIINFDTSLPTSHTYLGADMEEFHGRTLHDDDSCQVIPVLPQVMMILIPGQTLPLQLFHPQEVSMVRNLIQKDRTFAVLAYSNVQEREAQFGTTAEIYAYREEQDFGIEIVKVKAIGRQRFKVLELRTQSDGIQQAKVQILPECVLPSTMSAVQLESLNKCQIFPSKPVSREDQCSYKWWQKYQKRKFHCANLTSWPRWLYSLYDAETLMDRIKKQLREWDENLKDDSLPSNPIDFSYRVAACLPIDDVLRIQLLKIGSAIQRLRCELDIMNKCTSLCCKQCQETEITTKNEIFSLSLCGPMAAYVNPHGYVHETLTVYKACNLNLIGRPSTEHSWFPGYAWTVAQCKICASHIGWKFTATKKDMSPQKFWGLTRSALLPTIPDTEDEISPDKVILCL
T1 sequence (Q16531 whole entry partner): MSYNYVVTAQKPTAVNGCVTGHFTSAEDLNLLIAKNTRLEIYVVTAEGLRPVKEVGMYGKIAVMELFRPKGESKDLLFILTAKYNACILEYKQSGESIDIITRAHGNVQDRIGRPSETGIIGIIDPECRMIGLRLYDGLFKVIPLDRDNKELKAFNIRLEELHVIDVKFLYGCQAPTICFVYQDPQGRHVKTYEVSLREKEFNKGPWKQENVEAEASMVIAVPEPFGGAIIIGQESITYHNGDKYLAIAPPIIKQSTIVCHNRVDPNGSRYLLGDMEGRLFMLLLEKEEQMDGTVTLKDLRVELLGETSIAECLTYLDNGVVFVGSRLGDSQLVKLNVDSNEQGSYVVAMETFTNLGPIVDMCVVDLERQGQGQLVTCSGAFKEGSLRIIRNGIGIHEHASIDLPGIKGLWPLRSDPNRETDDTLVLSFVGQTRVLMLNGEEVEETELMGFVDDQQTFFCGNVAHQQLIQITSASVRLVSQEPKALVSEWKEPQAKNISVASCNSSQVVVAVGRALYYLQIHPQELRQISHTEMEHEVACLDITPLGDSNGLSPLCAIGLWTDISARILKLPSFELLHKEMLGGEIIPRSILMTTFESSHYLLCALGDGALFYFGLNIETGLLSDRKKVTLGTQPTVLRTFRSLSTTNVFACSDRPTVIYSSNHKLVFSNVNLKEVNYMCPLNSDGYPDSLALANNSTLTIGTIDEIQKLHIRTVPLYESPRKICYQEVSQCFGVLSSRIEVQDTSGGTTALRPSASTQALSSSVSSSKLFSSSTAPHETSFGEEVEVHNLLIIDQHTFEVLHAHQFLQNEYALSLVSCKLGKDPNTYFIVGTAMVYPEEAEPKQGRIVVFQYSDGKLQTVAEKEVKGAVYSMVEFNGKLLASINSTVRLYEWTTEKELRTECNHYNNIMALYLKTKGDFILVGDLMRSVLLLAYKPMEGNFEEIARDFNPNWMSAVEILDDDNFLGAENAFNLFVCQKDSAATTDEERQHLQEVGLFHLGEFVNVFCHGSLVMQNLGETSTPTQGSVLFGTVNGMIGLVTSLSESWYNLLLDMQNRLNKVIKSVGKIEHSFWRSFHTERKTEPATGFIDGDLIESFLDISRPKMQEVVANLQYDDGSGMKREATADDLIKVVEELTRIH

Structure (SMILES): O=C1CCC(N2Cc3cc(O[C@@H]4CCCN(C5CCCC5)C4)ccc3C2=O)C(=O)N1 (stereo partly drawn) [Example 42, 3-(5-(((R)-1-cyclopentylpiperidin-3-yl)oxy)-1-oxoisoindolin-2-yl)piperidine-2,6-dione]
- remaining activity at 25 µM [1]: 22.9%
- Dmax at 25 µM: 77.1%
- DC50: 3.6 nM

Structure (SMILES): O=C1CCC(N2Cc3cc(O[C@@H]4CCCN(C5CCOCC5)C4)ccc3C2=O)C(=O)N1 (stereo partly drawn) [Example 10, 3-(1-oxo-5-(((R)-1-(tetrahydro-2H-pyran-4-yl)piperidin-3-yl)oxy)isoindolin-2-yl)piperidine-2,6-dione]
- remaining activity at 25 µM [1]: 45.5%
- Dmax at 25 µM: 54.5%
- DC50: 33 nM

Structure (SMILES): CCN1CCC(C)(C)C(Oc2ccc3c(c2)CN(C2CCC(=O)NC2=O)C3=O)C1 (single isomer, unassigned) [Example 49, 3-(5-((1-ethyl-4,4-dimethylpiperidin-3-yl)oxy)-1-oxoisoindolin-2-yl)piperidine-2,6-dione]
- remaining activity at 25 µM [1]: 91.4%
- Dmax at 25 µM: 8.63%
- DC50: 83 nM

Structure (SMILES): CCN1CC[C@@H](F)[C@@H](Oc2ccc3c(c2)CN(C2CCC(=O)NC2=O)C3=O)C1 (relative stereo) [Example 57, 3-(5-(((3S*,4R*)-1-ethyl-4-fluoropiperidin-3-yl)oxy)-1-oxoisoindolin-2-yl)piperidine-2,6-dione]
- Dmax: 16.9%
- remaining activity at 25 µM: 83.1%
- DC50: 170 nM

Structure (SMILES): CC[C@H](C)N1CCC2(CC2)[C@@H](Oc2ccc3c(c2)CN(C2CCC(=O)NC2=O)C3=O)C1 (stereo partly drawn) [Example 17, 3-(5-(((R)-6-((S)-sec-butyl)-6-azaspiro[2.5]octan-4-yl)oxy)-1-oxoisoindolin-2-yl)piperidine-2,6-dione]
- remaining activity at 25 µM [1]: 27.8%
- Dmax at 25 µM: 72.2%
- DC50: 14 nM

Structure (SMILES): CCN1C[C@H](F)C[C@@H](Oc2ccc3c(c2)CN(C2CCC(=O)NC2=O)C3=O)C1 (stereo partly drawn) [Example 60, 3-(5-(((3R,5R)-1-ethyl-5-fluoropiperidin-3-yl)oxy)-1-oxoisoindolin-2-yl)piperidine-2,6-dione]
- Dmax: 37%
- remaining activity at 25 µM: 63%
- DC50: 78 nM

Structure (SMILES): CCN1CC[C@@H](C)[C@@H](Oc2ccc3c(c2)CN(C2CCC(=O)NC2=O)C3=O)C1 (mixture of isomers) [Example 46, rac-3-(5-(((3R,4R)-1-ethyl-4-methylpiperidin-3-yl)oxy)-1-oxoisoindolin-2-yl)piperidine-2,6-dione]
- remaining activity at 25 µM: 101%
- DC50: > 25000 nM

Structure (SMILES): CCO[C@@H]1C[C@@H](Oc2ccc3c(c2)CN(C2CCC(=O)NC2=O)C3=O)CN(S(C)(=O)=O)C1 (stereo partly drawn) [Example 71, 3-(5-(((3R,5R)-5-ethoxy-1-(methylsulfonyl)piperidin-3-yl)oxy)-1-oxoisoindolin-2-yl)piperidine-2,6-dione]
- remaining activity at 25 µM [1]: 39%
- Dmax at 25 µM: 61%
- DC50: 45.3 nM

Structure (SMILES): CCN1C[C@@H](O)C[C@@H](Oc2ccc3c(c2)CN(C2CCC(=O)NC2=O)C3=O)C1 (mixture of isomers) [Example 47, rac-3-(5-(((3R,5S)-1-ethyl-5-hydroxypiperidin-3-yl)oxy)-1-oxoisoindolin-2-yl)piperidine-2,6-dione]
- Dmax: 22.8%
- remaining activity at 25 µM: 77.2%
- DC50: 88 nM

Structure (SMILES): C[C@@H]1C[C@@H](Oc2ccc3c(c2)CN(C2CCC(=O)NC2=O)C3=O)CN(C)C1 (stereo partly drawn) [Example 75-2, 3-(5-(((3R,5R)-1,5-dimethylpiperidin-3-yl)oxy)-1-oxoisoindolin-2-yl)piperidine-2,6-dione]
- Dmax: 83.5%
- remaining activity at 25 µM: 16.5%
- DC50: 4 nM

Structure (SMILES): O=C1CCC(N2Cc3cc(O[C@@H]4CCCN(CC#CC5CC5)C4)ccc3C2=O)C(=O)N1 (stereo partly drawn) [Example 25, 3-(5-(((R)-1-(3-cyclopropylprop-2-yn-1-yl)piperidin-3-yl)oxy)-1-oxoisoindolin-2-yl)piperidine-2,6-dione]
- remaining activity at 25 µM [1]: 50.2%
- Dmax at 25 µM: 49.8%
- DC50: 7.5 nM
